From patent US8124566B2 (priority 2004, dated 2012)
Where “and” joins values, the source holds several entries; their conditions need not be identical. Equal entries are not always repeated. Where two headings read alike, the source gives them in different places.

Tests used:
Format in all cases: cell-based
Conditions in all cases: active ingredient alone
Botrytis cinerea = test: Fungal growth assay, Botrytis cinerea (Example B-1 a)
Septoria tritici = test: Fungal growth assay, Septoria tritici (Example B-2 a)
Pyricularia oryzae = test system: Pyricularia oryzae
Alternaria solani = test: Fungal growth assay, Alternaria solani (Example B-4 a)
Pyrenophora teres = test: Fungal growth assay, Pyrenophora teres (Example B-5 a)
Venturia inaequalis = test: Fungal growth assay, Venturia inaequalis (Example B-6 a)
Pythium ultimum = test: Fungal growth assay, Pythium ultimum (Example B-7)
Leptosphaeria nodorum = test: Fungal growth assay, Leptosphaeria nodorum (Example B-8)

## CC(C)C1C2CCC1c1c(NC(=O)c3cn(C)nc3C(F)F)cccc12 (racemic) [Cpd Ic]
Botrytis cinerea; 0.0025 ppm [mg/L]
  Observed control in % (% Cobs): 0%
Botrytis cinerea; 0.0074 ppm [mg/L]
  Observed control in % (% Cobs): 10%
Botrytis cinerea; 0.0222 ppm [mg/L]
  Observed control in % (% Cobs): 23% and 18% and 12%
Botrytis cinerea; 0.0667 ppm [mg/L]
  Observed control in % (% Cobs): 35% and 28%
Botrytis cinerea; 0.2000 ppm [mg/L]
  Observed control in % (% Cobs): 71%
Septoria tritici; 0.0001 ppm [mg/L]
  Observed control in % (% Cobs): 1%
Septoria tritici; 0.0008 ppm [mg/L]
  Observed control in % (% Cobs): 13%
Pyricularia oryzae; 0.0001 ppm [mg/L]
  Observed control in % (% Cobs): 2%
Pyricularia oryzae; 0.0008 ppm [mg/L]
  Observed control in % (% Cobs): 3%
Pyricularia oryzae; 0.0025 ppm [mg/L]
  Observed control in % (% Cobs): 13% and 6%
Pyricularia oryzae; 0.0074 ppm [mg/L]
  Observed control in % (% Cobs): 33%
Pyricularia oryzae; 0.0222 ppm [mg/L]
  Observed control in % (% Cobs): 59%
Alternaria solani; 0.0025 ppm [mg/L]
  Observed control in % (% Cobs): 8%
Alternaria solani; 0.0074 ppm [mg/L]
  Observed control in % (% Cobs): 27%
Pyrenophora teres; 0.0667 ppm [mg/L]
  Observed control in % (% Cobs): 37%
Pyrenophora teres; 0.2000 ppm [mg/L]
  Observed control in % (% Cobs): 55%
Venturia inaequalis; 0.0222 ppm [mg/L]
  Observed control in % (% Cobs): 6% and 10%
Venturia inaequalis; 0.0667 ppm [mg/L]
  Observed control in % (% Cobs): 18%
Venturia inaequalis; 0.2000 ppm [mg/L]
  Observed control in % (% Cobs): 59%
Pythium ultimum; 0.0667 ppm [mg/L]
  Observed control in % (% Cobs): 0%
Pythium ultimum; 0.2000 ppm [mg/L]
  Observed control in % (% Cobs): 0%
Pythium ultimum; 0.6000 ppm [mg/L]
  Observed control in % (% Cobs): 0%
Leptosphaeria nodorum; 0.0222 ppm [mg/L]
  Observed control in % (% Cobs): 0%
Leptosphaeria nodorum; 0.0667 ppm [mg/L]
  Observed control in % (% Cobs): 0%
Leptosphaeria nodorum; 0.2000 ppm [mg/L]
  Observed control in % (% Cobs): 0%

## Fc1ccc([C@]2(Cn3cncn3)O[C@H]2c2ccccc2Cl)cc1 (racemic) [Epoxiconazole]
Leptosphaeria nodorum; 0.0025 ppm [mg/L]
  Observed control in % (% Cobs): 9%
Leptosphaeria nodorum; 0.0222 ppm [mg/L]
  Observed control in % (% Cobs): 39%

## CO/C=C(/C(=O)OC)c1ccccc1Oc1cc(Oc2ccccc2C#N)ncn1 [Azoxystrobin]
Botrytis cinerea; 0.60 ppm [mg/L]
  Observed control in % (% Cobs): 7%
Botrytis cinerea; 1.80 ppm [mg/L]
  Observed control in % (% Cobs): 14%

## N#Cc1c(Cl)c(Cl)c(Cl)c(C#N)c1Cl [Chlorothalonil]
Pyricularia oryzae; 0.002 ppm [mg/L]
  Observed control in % (% Cobs): 0%
Pyricularia oryzae; 0.007 ppm [mg/L]
  Observed control in % (% Cobs): 0%
Pyricularia oryzae; 0.067 ppm [mg/L]
  Observed control in % (% Cobs): 0%

## CC1CCN(c2c(-c3c(F)cc(F)cc3F)c(Cl)nc3ncnn23)CC1 [Cpd B-1]
Venturia inaequalis; 0.0008 ppm [mg/L]
  Observed control in % (% Cobs): 17%
Venturia inaequalis; 0.0025 ppm [mg/L]
  Observed control in % (% Cobs): 32%
Venturia inaequalis; 0.0074 ppm [mg/L]
  Observed control in % (% Cobs): 61%

## C#CCOc1ccc(CCNC(=O)C(OCC#C)c2ccc(Cl)cc2)cc1OC (stereo not drawn) [Cpd F-1]
Pyrenophora teres; 5.4 ppm [mg/L]
  Observed control in % (% Cobs): 2%
Pyrenophora teres; 16.2 ppm [mg/L]
  Observed control in % (% Cobs): 6%

## CC(C1CC1)C(O)(Cn1cncn1)c1ccc(Cl)cc1 (stereo not drawn) [Cyproconazole]
Pyricularia oryzae; 0.022 ppm [mg/L]
  Observed control in % (% Cobs): 0%
Pyricularia oryzae; 0.200 ppm [mg/L]
  Observed control in % (% Cobs): 0%

## Cc1cc(C2CC2)nc(Nc2ccccc2)n1 [Cyprodinil]
Pyricularia oryzae; 0.002 ppm [mg/L]
  Observed control in % (% Cobs): 0%
Pyricularia oryzae; 0.007 ppm [mg/L]
  Observed control in % (% Cobs): 0%
Pyricularia oryzae; 0.067 ppm [mg/L]
  Observed control in % (% Cobs): 0%

## CC1COC(Cn2cncn2)(c2ccc(Oc3ccc(Cl)cc3)cc2Cl)O1 (stereo not drawn) [Difenoconazole]
Leptosphaeria nodorum; 0.0008 ppm [mg/L]
  Observed control in % (% Cobs): 5%
Leptosphaeria nodorum; 0.0025 ppm [mg/L]
  Observed control in % (% Cobs): 16%
Leptosphaeria nodorum; 0.0074 ppm [mg/L]
  Observed control in % (% Cobs): 73%

## CC(Cc1ccc(C(C)(C)C)cc1)CN1CCCCC1 (stereo not drawn) [Fenpropidin]
Pythium ultimum; 5.4000 ppm [mg/L]
  Observed control in % (% Cobs): 11%
Pythium ultimum; 16.2000 ppm [mg/L]
  Observed control in % (% Cobs): 34%

## CC(Cc1ccc(C(C)(C)C)cc1)CN1C[C@@H](C)O[C@@H](C)C1 (stereo partly drawn) [Fenpropimorph]
Venturia inaequalis; 0.0025 ppm [mg/L]
  Observed control in % (% Cobs): 0%
Venturia inaequalis; 0.0222 ppm [mg/L]
  Observed control in % (% Cobs): 33%

## N#Cc1c[nH]cc1-c1cccc2c1OC(F)(F)O2 [Fludioxonil]
Alternaria solani; 0.022 ppm [mg/L]
  Observed control in % (% Cobs): 1%
Alternaria solani; 0.067 ppm [mg/L]
  Observed control in % (% Cobs): 24%

## CO/C=C(/C(=O)OC)c1ccccc1COc1cccc(C(F)(F)F)n1 [Picoxystrobin]
Botrytis cinerea; 0.0222 ppm [mg/L]
  Observed control in % (% Cobs): 0%
Botrytis cinerea; 0.0667 ppm [mg/L]
  Observed control in % (% Cobs): 6%
Botrytis cinerea; 0.2000 ppm [mg/L]
  Observed control in % (% Cobs): 12%
Botrytis cinerea; 0.6000 ppm [mg/L]
  Observed control in % (% Cobs): 20%

## CCCC1COC(Cn2cncn2)(c2ccc(Cl)cc2Cl)O1 (stereo not drawn) [Propiconazole]
Septoria tritici; 0.007 ppm [mg/L]
  Observed control in % (% Cobs): 0%
Septoria tritici; 0.067 ppm [mg/L]
  Observed control in % (% Cobs): 7%

## OC(Cc1ccccc1Cl)(Cn1nc[nH]c1=S)C1(Cl)CC1 (stereo not drawn) [Prothioconazole]
Botrytis cinerea; 0.0222 ppm [mg/L]
  Observed control in % (% Cobs): 8%
Botrytis cinerea; 0.0667 ppm [mg/L]
  Observed control in % (% Cobs): 17%
Botrytis cinerea; 0.2000 ppm [mg/L]
  Observed control in % (% Cobs): 52%
